Values quoted from earlier work, collected in publication PMC11901578, “Polymethoxyflavones and Bone Metabolism” (Nutrients, 2025).
Like-named read-outs stand apart in the source and are kept apart here.

Columns and labels:
[1] = tested on: bone marrow macrophage (BMM) cultures; settings: 2, 10, and 50 μM; cited from earlier work
[2] = tested on: human periodontal ligament cells (HPDLCs); settings: TNF-α, human periodontal ligament cells; cited from earlier work
[3] = tested on: osteoclast differentiation in co-cultures of osteoblasts and bone marrow cells; settings: cited from earlier work; for IC50: IL-1 +, read-out: IC50, osteoclast differentiation in co-culture system; for inhibitory effect on IL-1-induced osteoclast differentiation relative to nobiletin and tangeretin, respectively: TRAP-positive osteoclasts
[4] = tested on: Raw264.7; settings: RANKL +, cited from earlier work; for IC50: read-out: IC50, osteoclast differentiation in Raw264.7 cultures
[5] = tested on: HL-60 cells; parameters: method as in PMID 23225422; settings: read-out: IC50, anti-proliferative effect on HL-60 cells; cited from earlier work
[6] = tested on: human umbilical vein endothelial cells (HUVECs); parameters: method as in PMID 22707269; settings: read-out: IC50, anti-proliferative effect on HUVECs; cited from earlier work
[7] = tested on: osteoclast differentiation in co-culture system; settings: LPS +, 30 μM; cited from earlier work
[8] = tested on: alveolar bone loss in mice; settings: LPS +, cited from earlier work
[9] = tested on: osteoclast differentiation; parameters: method as in PMID 22850615; settings: 30 μM; cited from earlier work
[10] = tested on: rheumatoid synovial fibroblasts (RASFs); parameters: method as in doi:10.3329/bjp.v10i3.22865; settings: 50 and 100 μM; cited from earlier work
[11] = tested on: CIA rats; parameters: method as in PMID 31344704; settings: daily oral administration for 14 days; cited from earlier work
[12] = tested on: bone resorption in mouse calvarial or alveolar bone organ cultures; settings: 30 μM, mouse calvarial or alveolar bone organ cultures; cited from earlier work
[13] = tested on: serum TNF-α levels; parameters: method as in PMID 18816060; settings: rats, intraperitoneal 100 mg/kg; cited from earlier work
[14] = tested on: IL-1β mRNA expression in the hippocampus; parameters: method as in PMID 25884208; settings: mice, subcutaneous 100 mg/kg; cited from earlier work
[15] = tested on: osteoclast differentiation; parameters: method as in PMID 26044862; settings: 20 μM, compared to 20 μM laricitrin and 20 μM myricetin; cited from earlier work
[16] = tested on: zebrafish embryos; parameters: method as in PMID 22707269; settings: 30 μM, cited from earlier work
[17] = tested on: DMM-OA mice; settings: DMM-OA mice, oral 50 mg/kg/day for 8 weeks; cited from earlier work
[18] = tested on: periodontal ligament cells; parameters: method as in PMID 38734708; settings: 2.5, 5, and 10 μM; cited from earlier work
[19] = tested on: rats with ligature-induced periodontitis; parameters: method as in PMID 38734708; settings: oral 5, 10, and 20 mg/kg/day for 3 weeks; cited from earlier work
[20] = tested on: BTB and CNC homology 1 (BACH1); parameters: method as in PMID 38734708; settings: cited from earlier work

COc1cc(-c2cc(=O)c3c(O)c(OC)c(O)c(OC)c3o2)ccc1O [Sudachitin, 4′,5,7-Trihydroxy-3′,6,8-trimethoxyflavone]
RANKL-induced osteoclast differentiation [1]: dose-dependently suppressed | production of MMP-1 and MMP-3 [2]: reduced the production

COc1c(OC)c(OC)c2c(=O)cc(-c3ccc(O)cc3)oc2c1OC [4′-Demethyltangeretin, 4′-Hydroxy-5,6,7,8-Tetramethoxyflavone]
IC50 [3]: 18 µM | inhibitory effect on IL-1-induced osteoclast differentiation relative to nobiletin and tangeretin, respectively [3]: potent inhibitory effects | IC50 [4]: 7 µM

COc1ccc(-c2oc3c(OC)c(OC)c(OC)c(OC)c3c(=O)c2O)cc1OC [Natsudaidain, 3′,4′,5,6,7,8-Hexamethoxy-3-hydroxyflavone]
IC50 [5]: 5 µM

COc1ccc(-c2cc(=O)c3c(OC)c(OC)c(OC)cc3o2)cc1 [Scutellarein tetra-methylether]
IC50 [6]: > 100 µM

COc1ccc(-c2cc(=O)c3c(OC)c(OC)c(OC)c(OC)c3o2)cc1 [Tangeretin, 4′,5,6,7,8-Pentamethoxyflavone]
IC50 [3]: 18 µM | osteoclast differentiation in co-culture system, inhibited [7]: 94% inhibited [8] | osteoclast differentiation in Raw264.7 cultures, inhibited ([4]; 30 μM): 71% inhibited [8] | IC50 [4]: 16 µM | alveolar bone loss in mice, restored ([8]; 30 μg/mouse): 0% restored [8] | alveolar bone loss in mice, restored ([8]; 100 μg/mouse): 2% restored [8] | alveolar bone loss in mice, restored ([8]; 500 μg/mouse): 4% restored [8] | suppression of osteoclast differentiation induced by IL-1, LPS, or soluble RANKL (sRANKL) [9]: 70–90% | proliferation of rheumatoid synovial fibroblasts (RASFs) [10]: significantly inhibits | oxidative stress and inflammation [11]: reduced oxidative stress and inflammation | IC50 [5]: 32 µM

COc1ccc(-c2oc3c(OC)c(OC)c(OC)c(OC)c3c(=O)c2OC)cc1OC [Heptamethoxyflavone, 3,3′,4′,5,6,7,8,-Heptamethoxyflavone]
inhibition of LPS-induced bone resorption [12]: > 90% | serum TNF-α levels [13]: reduced serum TNF-α levels | IL-1β mRNA expression in the hippocampus [14]: downregulates | IC50 [5]: 63 µM

COc1cc(-c2oc3cc(O)cc(O)c3c(=O)c2O)cc(OC)c1O [Syringetin, 3,4′,5,7-Tetrahydroxy-3′,5′-dimethoxyflavone]
inhibitory effect on M-CSF-/RANKL-induced osteoclast differentiation [15]: strongest inhibitory effect

COc1ccc([C@@H]2CC(=O)c3c(O)cc(O)cc3O2)cc1O [Hesperetin, reference compound]
IC50 [6]: > 100 µM | anti-angiogenic effect on zebrafish embryos, inhibited ([16]; listed as hesperitin): ~30% | anti-angiogenic effect on zebrafish embryos, inhibited [16]: 30% inhibited [47]

COc1cc(-c2cc(=O)c3c(OC)c(OC)c(OC)c(OC)c3o2)ccc1O [4′-Demethylnobiletin, 4′-Hydroxy-3′,5,6,7,8-Pentamethoxyflavone]
IC50 [3]: 13 µM | inhibitory effect on IL-1-induced osteoclast differentiation relative to nobiletin and tangeretin, respectively [3]: potent inhibitory effects | IC50 [4]: 1 µM

O=c1cc(-c2ccc(O)cc2)oc2cc(O)c(O)c(O)c12 [Scutellarein]
IC50 [6]: > 100 µM

COc1ccc(-c2cc(=O)c3c(OC)c(OC)c(OC)cc3o2)cc1OC [Sinensetin, 3′,4′,5,6,7-Pentamethoxyflavone]
disease progression [17]: protects against disease progression | oxidative stress and inflammation [18]: dose-dependently reduced | alveolar bone resorption [19]: suppressed alveolar bone resorption | binding to BACH1 [20]: directly binds | IC50 [5]: > 400 µM | IC50 [6]: 24 µM | anti-angiogenic effect on zebrafish embryos, inhibited ([16]; listed as sinensetin): approximately 95% | anti-angiogenic effect on zebrafish embryos, inhibited [16]: 95% inhibited [47]
